The values below come from publication PMC9841576, “Characterisation of C101248: A novel selective THIK-1 channel inhibitor for the modulation of microglial NLRP3-inflammasome” (Neuropharmacology, 2023).

One data set is described as follows: CNS PK study in rats. It counts as in vivo. The following applies: Sprague Dawley, rat, brain (unbound) / plasma (unbound), 10 or 30 mg/kg oral, 1, 2 or 4 h post dose, read-out: Kpu,u. The protocol: In CNS PK studies, rodents (C57BL/6 mice or Sprague Dawley rats) were administered C101248 by oral gavage at 10 or 30 mg/kg. At specified timepoints post dose (0.5, 1, 2 or 4 h), blood samples were collected and processed to plasma (centrifugation at 5000 rpm, 4 °C for 10 min). Immediately following blood withdrawal, cerebrospinal fluid (CSF) samples were collected from the cisterna magna, whole body perfusion was conducted, and brain samples were collected and weighed. Samples were stored frozen at −80 ± 10 °C until analysis. Plasma, CSF, and brain samples were analysed using a fit for purpose bioanalytical method (LC-MS/MS) against a calibration curve containing QC samples. Brain:plasma and CSF:plasma were calculated based on brain concentration/plasma concentration at the same timepoint. Unbound partition coefficient (Kpu,u) values were calculated based on unbound brain concentration/unbound plasma concentration at the same timepoint. Unbound concentrations were derived by adjusting plasma concentrations for the fraction unbound in plasma based on in vitro plasma protein binging (PPB) values and brain concentrations for the unbound fraction in brain tissue based on in vitro brain tissue binding (BTB) values.

Data set [1] deals with NLRP3-dependent release of IL-1β. The experiment in a line: IL-1β release from LPS-primed neonatal microglia exposed to K+-free buffer. In kind it is cell-based, mouse. On the procedure:
In brief, brains were dissected by removing meninges, cerebellum, and olfactory bulbs before tissue was finely minced with a scalpel then digested with papain solution for 20 min at 37 °C. Tissue was dissociated and the resulting cell suspension was passed through a 40 μm cell strainer (Greiner Bio-One). Cells were centrifuged at 300 g for 5 min then resuspended in culture medium (DMEM, 10% FBS, 1% PenStrep) and plated in T75 collagen-coated flasks (Greiner Bio-One). A full medium change was caried out on day 2 while a half medium was changed on day 5 in the presence of 5 ng/ml of mouse GM-CSF (R&D Systems). Microglia were shaken off between day 9 and 11 and plated onto poly-D-lysine coated 96-well plates (μclear, Greiner Bio-One) at a density of 20,000 cells/well.
IL-1β from culture supernatants was measured with DuoSet ELISA kit (R&D Systems) following the manufacturer instructions.

The target in another data set is T1, THIK-1 (Homo sapiens, UniProt Q9HB14).
T1 construct: expressed in transfected cells
T1 sequence (Q9HB14 1-408): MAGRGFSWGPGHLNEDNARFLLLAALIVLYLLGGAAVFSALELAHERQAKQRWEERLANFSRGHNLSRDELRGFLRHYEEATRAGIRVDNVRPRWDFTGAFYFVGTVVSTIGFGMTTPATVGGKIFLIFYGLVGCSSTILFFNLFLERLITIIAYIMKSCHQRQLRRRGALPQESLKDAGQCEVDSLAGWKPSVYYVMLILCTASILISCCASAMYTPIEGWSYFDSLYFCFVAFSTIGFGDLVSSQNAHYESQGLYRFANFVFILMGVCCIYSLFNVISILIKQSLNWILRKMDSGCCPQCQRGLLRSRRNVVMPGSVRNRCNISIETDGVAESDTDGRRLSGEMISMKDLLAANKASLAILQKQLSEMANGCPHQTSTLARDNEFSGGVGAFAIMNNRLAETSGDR
The experiment in a line: Q-Patch automated electrophysiology, HEK-hTHIK-1 cells. In kind it is cell-based. On the procedure:
HEK-293 cells were transfected with human THIK-1, TREK-1, TWIK-2, or mouse THIK-1 cDNA cloned into pcDNA3.1, using either Fugene HD transfection reagent (Promega) or electroporation (MaxCyte STX instrument). Cells stably expressing the relevant genes were selected based on resistance to 500 μg/ml geneticin (Gibco). For human THIK-1 and TWIK-2 expressing cells, monoclonal lines were isolated by limited dilution cloning; mouse THIK-1 and human TREK-1 expressing cells were maintained as polyclonal pools. The HEK-293 pools and monoclones stably expressing the relevant genes were maintained in DMEM (Life Technologies), supplemented with 10% FCIII (HyClone, Fetal clone III) and 500 μg/ml geneticin. A CHO-Kv2.1 cell line was purchased from Millipore (accession NM_004975) and maintained in F12 (Life Technologies), supplemented with 10% FCSIII (Thermo Scientific) and 500 μg/ml geneticin (Life Technologies). For thallium flux assays, banks of frozen cell aliquots were prepared the day prior to assay, cells were thawed into media and seeded into PDL coated 384-well plates (Corning) at 25,000 (human/mouse THIK-1, TREK-1) or 30,000 (TWIK-2) cells/well (25 μl/well). CHO-Kv2.1 cells were seeded into non-PDL coated plates (Corning) at 5000 cells/well. […]
THIK-1 mediated currents were measured using the Q-Patch 48 automated electrophysiology platform (Sophion, Denmark). […]

With `Nc1nonc1-c1nc2ccccc2n1Cc1ccncc1` [C101248], the Kp in “CNS PK study in rats” lay in the range of 0.55 to 0.95. The “reduction of IL-1β release” value in data set [1] (10 μM, wild type neonatal microglia, K+-free buffer) is recorded as ~55%. The IC50 in data set [1] (Mus musculus, wild-type neonatal microglia, LPS-primed, K+-free buffer, read-out: IC50, inhibition of IL-1β release) amounted to 106 nM; on THIK-1 (HEK-hTHIK-1, step to +40 mV, normalised to TPA, read-out: IC50, inhibition of basal currents (Q-Patch)), 147 nM. For the same compound, the “effect on K+-free buffer-induced release of IL-1β in THIK-1 KO microglia” value in data set [1] (THIK-1 KO neonatal microglia, 10 μM) is “no impact”. Also, the “maximum inhibition (Q-Patch)” value on THIK-1 (HEK-hTHIK-1) worked out at 94%.

The term IC50 denotes the concentration that gives 50% inhibition.
